Experimental findings from patent US4056622A, “N-sulfonyl-N-dihalophenylimidazolidinediones” (Sumitomo Chemical Company, Limited, priority 1975, dated 1977) are described below.

One assay has as its system Alternaria bracissicola. Briefly: Test for Alternaria bracissicola-controlling effect (chinese cabbage). The format is in vivo. To be noted: 7 ml per pot. How it is done:
An aqueous dilution of the test compound in the form of a wettable powder preparation was applied to chinese cabbage (variety: Nozaki No. 2), cultured in pots of 9 cm in diameter and almost grown up to the two leaved stage, at a rate of 7 ml per pot. After one day, a spore suspension of Alternaria bracissicola was sprayed on the surface of the leaf for inoculation. The pots were left in a dark, moist room for one day and then under illumination for 2 days. Then, the infectious state was examined. The degree of damage was determined in the following manner. The rate of infectious area on the leaf was measured and classified in one of the infectious indexes (0, 1, 2, 3, 4, 5) according to the undermentioned criteria. The number of leaves corresponding to each infectious index (n0, n1, n2, n3, n4, n5) was determined, and calculation was effected according to the undermentioned equation.

The next assay has as its system Sclerotinia sclerotiorum. Briefly: Test for Sclerotinia sclerotiorum-controlling effect on cucumbers. In kind it is in vivo. To be noted: cucumber; 100 ppm active ingredient, 7 ml per pot; 3 days after inoculation. How it is done: An aqueous dilution of the test compound in the form of a wettable powder preparation was applied to cucumbers, cultured in pots of 9 cm in diameter, when the first leaf was almost developed, at a rate of 7 ml per pot. After one day, Sclerotinia sclerotiorum was inoculated on the surface of the leaf, and the infectious state was examined three days thereafter. The degree of damage was determined in the following manner. The rate of infectious area on the leaf was measured and classified in one of the six infectious indexes (0, 1, 2, 3, 4, 5) according to the undermentioned criteria. The number of leaves corresponding to each infectious index (n0, n1, n2, n3, n4, n5) was determined, and calculation was effected according to the undermentioned equation.

The subject of assay [1] is Botrytis cinerea. Briefly: Test for Botrytis cinerea-controlling effect on cucumbers: disease preventing effect. To be noted: cucumber; 50 ppm active ingredient, 7 ml per pot; 3 days after inoculation. The format is in vivo. The procedure: An aqueous dilution of the test compound in the form of a wettable powder preparation was applied to cotyledons of cucumbers, cultered in pots of 9 cm in diameter and the first leaf was nipped off when it developed, at a rate of 7 ml per pot. After one day, agar discs (diameter: 5 mm) with Botrytis cinerea were attached to the leaves for inoculation. Three days thereafter, the disease severity was observed, and the disease-controllingeffect was estimated.
(§1) Percentage of control was determined by the following procedure. The rate of diseased area on the tested leaf was measured and classified in one of the six infectious indexes (0, 1, 2, 3, 4, 5) according to the undermentioned criteria. The number of leaves corresponding to each infectious index (n0, n1, n2, n3, n4, n5) was determined, and calculation was effected according to the undermentioned equation.

Assay [2] deals with Botrytis cinerea. Briefly: Test for Botrytis cinerea on cucumbers: effect of prevention of diseased spot-development. The format is in vivo. To be noted: cucumber, 7 ml per pot, applied one day after inoculation. The procedure: The test for examining the effect of prevention of diseased spot-development was carried out in the following manner. An agar disc with the mycelium was attached to the first leaf for inoculation. After one day, the diameter of the diseased spot was measured. The solution of the test compound was applied to the plant at a rate of 7 ml per pot, and two days thereafter, the diameter of the diseased spot was again measured, and the effect for prevention of diseased spot-development was calculated according to the following equation: [formula]

In assay [3] the test system is Botrytis cinerea. Briefly: Test for Botrytis cinerea on cucumbers: systemic activity by the water culture method. The format is in vivo. To be noted: cucumber, 5 ppm solution, 3 days, 3 days after inoculation. How it is done: The systemic activity of the test compound was tested by the water culture method in the following manner. The plants were pulled out from the pots carefully so as not to damage the roots, and the soil attached to the roots was well removed by water-washing. The plants were placed into flasks containing a 5 ppm solution of the test compound (50 ml) and allowed to stand for 3 days at a constant temperature under illumination. Agar discs with the mycelium were attached to the cotyledons for inoculation, and the degree of damage was examined three days thereafter.
as §1

A further assay has as its system Pellicularia sasakii. Briefly: Test for Pellicularia sasakii-controlling effect on rice plants. In kind it is in vivo. To be noted: dust, 1.4 % active ingredient, 3 kg per 10 a, 5 days after inoculation. How it is done:
The test compound in the form of a dust preparation was applied to rice plants (variety: Wase-Asahi), cultured in porcelain Wagner pots (1/500 a) and grown up to a grass height of 50 to 60 cm, at a rate of 3 kg per 10 a by the use of a duster. After one day, a mycelial disc of Pellicularia sasakii was attached to the sheath of each stem for inoculation. Five days thereafter, the size of the diseased spot generated on the sheath was measured, and the degree of damage was calculated according to the following equation to estimate the disease-controlling effect of the compound. [formula]

Assay [4] concerns Aspergillus niger ATCC 6275. Briefly: Antimicrobial spectrum against industrial fungi, agar medium dilution method: Aspergillus niger. The format is cell-based. To be noted: ATCC6275, A. niger, read-out: Minimal inhibitory concentration of active ingredient. An excerpt: (§2) The effect for inhibition of hyphae growth was examined by the agar medium dilution method on Aspergillus niger ATCC 6275, Cladosporium herbarum IAM F 517 and Chaetomium globosum ATCC 6205 multiplying on industrial products and damaging them.

Assay [5] relates to Chaetomium globosum ATCC 6205. Briefly: Antimicrobial spectrum against industrial fungi, agar medium dilution method: Chaetomium globosum. The format is cell-based. To be noted: ATCC6205, C. globosum, read-out: Minimal inhibitory concentration of active ingredient.
Text: as §2

Assay [6] deals with Cladosporium herbarum IAM F 517. Briefly: Antimicrobial spectrum against industrial fungi, agar medium dilution method: Cladosporium herbarum. To be noted: IAMF517, C. herbarum, read-out: Minimal inhibitory concentration of active ingredient. In kind it is cell-based.
Text: as §2

≈ marks a conversion by molar mass, not a printed value.

Regarding `CS(=O)(=O)N1CC(=O)N(c2cc(Cl)cc(Cl)c2)C1=O` [Compound 53], the Degree of damage with Alternaria bracissicola (100 ppm active ingredient) was found to be 7%; in the assay on Alternaria bracissicola (200 ppm active ingredient) it was 11%.
For `CCS(=O)(=O)N1CC(=O)N(c2cc(Cl)cc(Cl)c2)C1=O` [Compound 54], the Degree of damage is recorded as 12% in the assay with Sclerotinia sclerotiorum, 5% in the assay on Alternaria bracissicola (100 ppm active ingredient) and 2% with Alternaria bracissicola (200 ppm active ingredient).
Regarding `CCCS(=O)(=O)N1CC(=O)N(c2cc(Cl)cc(Cl)c2)C1=O` [Compound 55], the Degree of damage with Sclerotinia sclerotiorum is on record as 0%; with Alternaria bracissicola (100 ppm active ingredient) it was 0%; in the assay with Alternaria bracissicola (200 ppm active ingredient), 0%; in the assay with Pellicularia sasakii, 25%. Moreover, the “Disease-preventing value: Disease preventing effect” value in the assay with Botrytis cinerea [1] came to 100%. Besides, in the assay on Botrytis cinerea [2] (100 ppm), the “Effect for prevention of diseased spot-development” value (“Effect for prevention” below) was found to be 88%. In the assay with Botrytis cinerea [3], the “Disease-preventing value: Systemic activity” value turned out to be 88%.
With `CC(C)S(=O)(=O)N1CC(=O)N(c2cc(Cl)cc(Cl)c2)C1=O` [Compound 56], the Degree of damage amounted to 0% in the assay on Sclerotinia sclerotiorum and 19% with Pellicularia sasakii. Besides, in the assay on Botrytis cinerea [1], the “Disease-preventing value: Disease preventing effect” value is recorded as 100%. For the same molecule, the “Effect for prevention” value with Botrytis cinerea [2] (100 ppm) is recorded as 78%. Further, in the assay on Botrytis cinerea [3], the “Disease-preventing value: Systemic activity” value stood at 92%.
`CCCCS(=O)(=O)N1CC(=O)N(c2cc(Cl)cc(Cl)c2)C1=O` [Compound 57]: the Degree of damage came to 0% in the assay on Sclerotinia sclerotiorum, 1% in the assay on Alternaria bracissicola (100 ppm active ingredient) and 0% with Alternaria bracissicola (200 ppm active ingredient). Moreover, the “Disease-preventing value: Disease preventing effect” value in the assay with Botrytis cinerea [1] is on record as 98%. Further, in the assay with Botrytis cinerea [2] (100 ppm), the “Effect for prevention” value was found to be 65%. Besides, in the assay with Botrytis cinerea [3], the “Disease-preventing value: Systemic activity” value was 79%.
`CC(C)CS(=O)(=O)N1CC(=O)N(c2cc(Cl)cc(Cl)c2)C1=O` [Compound 58]: in the assay on Botrytis cinerea [1], the “Disease-preventing value: Disease preventing effect” value was 100%. For the same molecule, in the assay with Botrytis cinerea [2] (100 ppm), the “Effect for prevention” value was found to be 73%. Also, the “Disease-preventing value: Systemic activity” value in the assay on Botrytis cinerea [3] is on record as 63%.
In the case of `CCC(C)S(=O)(=O)N1CC(=O)N(c2cc(Cl)cc(Cl)c2)C1=O` (stereo not shown) [Compound 59], the MIC in assay [4], in [5] and in assay [6] was 1000 µg/mL (≈ 2740 µM) throughout. Further, the Degree of damage with Pellicularia sasakii is 19%.
Regarding `CCCCCS(=O)(=O)N1CC(=O)N(c2cc(Cl)cc(Cl)c2)C1=O` [Compound 61], the MIC in assay [4] stood at 1000 µg/mL (≈ 2640 µM); in [5] it was 1000 µg/mL (≈ 2640 µM); in assay [6] it was 2000 µg/mL (≈ 5270 µM).
Molecule `C=CCS(=O)(=O)N1CC(=O)N(c2cc(Cl)cc(Cl)c2)C1=O` [Compound 63] showed a Degree of damage with Sclerotinia sclerotiorum of 9%.
Still for that read-out and setting: the value for `CCCS(=O)(=O)N1CC(=O)N(c2cc(Br)cc(Br)c2)C1=O` [Compound 64] was 0%.
Turning to `CCCS(=O)(=O)N1C(=O)N(c2cc(Cl)cc(Cl)c2)C(=O)C1C` (stereo not shown) [Compound 66], the Degree of damage with Sclerotinia sclerotiorum was 3%; in the assay with Pellicularia sasakii, 16%.
For the molecule `CCCS(=O)(=O)N1C(=O)N(c2cc(Cl)cc(Cl)c2)C(=O)C1(C)C` [Compound 69], the Degree of damage in the assay with Alternaria bracissicola (100 ppm active ingredient) turned out to be 21%; in the assay with Alternaria bracissicola (200 ppm active ingredient), 6%.
As for `O=C1CN(S(=O)(=O)CCCCl)C(=O)N1c1cc(Cl)cc(Cl)c1` [Compound 70], the values for the Degree of damage in the assay with Sclerotinia sclerotiorum, in the assay on Alternaria bracissicola (100 ppm active ingredient) and in the assay on Alternaria bracissicola (200 ppm active ingredient) were 0%, 2% and 1%, respectively.
`CCCCNC(=O)n1c(NC(=O)OC)nc2ccccc21` [Methyl-1-(butylcarbamoyl)-2-benzimidazole carbamate, reference compound] had a Degree of damage with Sclerotinia sclerotiorum of 32%. The “Disease-preventing value: Disease preventing effect” value in the assay on Botrytis cinerea [1] worked out at 90%. In addition, in the assay on Botrytis cinerea [2] (500 ppm), the “Effect for prevention” value worked out at 87%. Further, the “Disease-preventing value: Systemic activity” value in the assay with Botrytis cinerea [3] came to 91%.
`CCC(=O)N1CC(=O)N(c2cc(Cl)cc(Cl)c2)C1=O` [reference compound]: in the assay on Botrytis cinerea [1], the “Disease-preventing value: Disease preventing effect” value was 89%. Further, in the assay on Botrytis cinerea [2] (500 ppm), the “Effect for prevention” value is recorded as 21%. Besides, the “Disease-preventing value: Systemic activity” value with Botrytis cinerea [3] was 0%.
With `O=C1CNC(=O)N1c1cc(Cl)cc(Cl)c1` [reference compound], in the assay with Botrytis cinerea [1], the “Disease-preventing value: Disease preventing effect” value was 70%. In the assay on Botrytis cinerea [2] (500 ppm), the “Effect for prevention” value was found to be 13%. In addition, in the assay with Botrytis cinerea [3], the “Disease-preventing value: Systemic activity” value amounted to 0%.
